Assay results as given in patent US12139475B2, “2-oxindole compounds” (CHEMOCENTRYX, INC., priority 2016, dated 2024).

Target: T1, CCR(9) (Homo sapiens, UniProt P51686)
T1 construct: MOLT-4 cells were collected by centrifugation at 400×g at room temperature, then suspended at 50 million/ml in human serum; host or cells: MOLT-4
T1 sequence (P51686 1-369): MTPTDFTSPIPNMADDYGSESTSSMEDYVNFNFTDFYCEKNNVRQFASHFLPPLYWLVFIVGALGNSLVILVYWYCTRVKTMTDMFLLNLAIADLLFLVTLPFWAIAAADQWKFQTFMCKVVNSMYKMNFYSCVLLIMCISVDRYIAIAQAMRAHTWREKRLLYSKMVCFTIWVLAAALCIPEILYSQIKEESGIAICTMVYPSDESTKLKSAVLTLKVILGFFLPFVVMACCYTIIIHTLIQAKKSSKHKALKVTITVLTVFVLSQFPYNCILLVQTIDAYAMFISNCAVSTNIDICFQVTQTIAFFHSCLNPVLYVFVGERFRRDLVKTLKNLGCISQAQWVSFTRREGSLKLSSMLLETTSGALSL
Experiment: Serum chemotaxis assay (MOLT-4 cells, TECK-induced migration, ChemoTX)
Assay type: cell-based
Conditions: MOLT-4 cells in human serum, migration to recombinant human TECK, 90 minutes at 37° C.
Protocol: MOLT-4 cells were obtained from the American Type Culture Collection (Manassas, VA) and cultured in RPMI tissue culture medium supplemented with 10% fetal calf serum (FCS) in a humidified 5% CO2 incubator at 37° C. Recombinant human chemokine proteins TECK was obtained from R&D Systems (Minneapolis, MN). ChemoTX™ chemotaxis microchambers were purchased from Neuro Probe (Gaithersburg, MD). CyQUANT™ cell proliferation kits were purchased from Molecular Probes (Eugene, Oregon). Calcium indicator dye Fluo-4 AM was purchased from Molecular Devices (Mountain View, CA).
A serum chemotaxis assay was used to determine the efficacy of potential receptor antagonists at blocking the migration mediated through chemokine receptors, such as CCR(9). This assay was performed using the ChemoTX® microchamber system with a 5-μm pore-sized polycarbonate membrane. MOLT-4 cells were collected by centrifugation at 400×g at room temperature, then suspended at 50 million/ml in human serum, containing 50 mM HEPES (final pH of 7.2). The compound being tested or an equivalent volume of its solvent (DMSO) was then added to the cell/serum mixture at a final DMSO concentration of 0.125% (v/v), and this mixture was then incubated together at 37° C. for one hour. Separately, recombinant human TECK was diluted with chemotaxis buffer (HBSS+0.1% BSA), generally spanning a range from 0.1 nM to 500 nM, after which 29 μl of diluted chemokine was placed in the lower wells of the ChemoTX® plate. The 5-μm (pore size) polycarbonate membrane was placed onto the plate, and 20 μL of the cell/compound mixture was transferred onto each well of the membrane. The plates were incubated at 37° C. for 90 minutes, after which the polycarbonate membranes were removed and 5 μl of the DNA-intercalating agent CyQUANT (Invitrogen, Carlsbad, CA) was added to the lower wells. The amount of fluorescence, corresponding to the number of migrated cells, was measured using a Spectrafluor Plus plate reader (TECAN, San Jose, CA).
The A2 values were calculated from the following equation, comparing the efficacy of the test compound with that of the DMSO-only control at equi-active chemokine levels: Log(A2)=log[drug(M)]−log[(A′/A)−1] where A reflects the potency of the agonist in the absence of antagonist and A′ reflects the potency of the agonist in the presence of antagonist at a given concentration of drug ([drug(M)]). In Vivo Efficacy Models for Human IBD

| Compound | Chemotaxis A2 |
| --- | --- |
| Cc1ccc2c(c1)C(C)(c1ccc3c(c1)CCC(C)(C)O3)C(=O)N2c1ccc(C)c(C(=O)O)c1 (stereo in doubt) [5-[(3R)-3-(2,2-dimethylchroman-6-yl)-3,5-dimethyl-2-oxo-indolin-1-yl]-2-methyl-benzoic acid] | +++ (100 nM > A2) |
| COc1ccc(N2C(=O)C(C)(c3ccc4c(c3)CCC(C)(C)O4)c3cc(Cl)ccc32)cc1C(=O)O (stereo in doubt) [5-[(3R)-5-chloro-3-(2,2-dimethylchroman-6-yl)-3-methyl-2-oxo-indolin-1-yl]-2-methoxy-benzoic acid] | +++ (100 nM > A2) |
| Cn1nnn(Cc2ccc(N3C(=O)[C@@](C)(c4ccc5c(c4)CCC(C)(C)O5)c4cc(Cl)ccc43)cc2)c1=O [(S)-5-chloro-3-(2,2-dimethylchroman-6-yl)-3-methyl-1-(4-((4-methyl-5-oxo-4,5-dihydro-1H-tetrazol-1-yl)methyl)phenyl)indolin-2-one] | +++ (100 nM > A2) |
| CC1(C)CCc2cc([C@]3(C)C(=O)N(c4ccc(Cn5nn[nH]c5=O)cc4)c4ccc(Cl)cc43)ccc2O1 [(S)-5-chloro-3-(2,2-dimethylchroman-6-yl)-3-methyl-1-(4-((5-oxo-4,5-dihydro-1H-tetrazol-1-yl)methyl)phenyl)indolin-2-one] | +++ (100 nM > A2) |
